Results reported in PubChem BioAssay AID1918935 (Molecular Pharmacology Branch, DTP, NCI, 2023).
pIC50: −log10 of the molar value.

Test system: 324938-238-R-J1-PDC complex spheroid viability
Test: Anticancer human tumor 324938-238-R-J1-PDC patient-derived bladder carcinoma cell line growth inhibition
Conditions: for pIC50: curve of first compound; for viability, T/C: stronger effect = lower value
Method in brief: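 Complex spheroids of tumor cells with HUVEC and human MSCs, exposed to iadademstat combined with other agents. Each agent tested in half-log steps from near clinical Cmax (else 10 microM top), DMSO ≤0.25%.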

[1] = second compound 0.1 µM, first compound 0.0316 µM
[2] = second compound 0.1 µM, first compound 0.1 µM
[3] = second compound 0.1 µM, first compound 0.316 µM
[4] = second compound 0.1 µM, first compound 1 µM
[5] = second compound 0.316 µM, first compound 0.0316 µM
[6] = second compound 0.316 µM, first compound 0.1 µM
[7] = second compound 0.316 µM, first compound 0.316 µM
[8] = second compound 0.316 µM, first compound 1 µM
[9] = second compound 1 µM, first compound 0.0316 µM
[10] = second compound 1 µM, first compound 0.1 µM
[11] = second compound 1 µM, first compound 0.316 µM
[12] = second compound 1 µM, first compound 1 µM
[13] = second compound 3.16 µM, first compound 0.0316 µM
[14] = second compound 3.16 µM, first compound 0.1 µM
[15] = second compound 3.16 µM, first compound 0.316 µM
[16] = second compound 3.16 µM, first compound 1 µM
[17] = second compound 10 µM, first compound 0.0316 µM
[18] = second compound 10 µM, first compound 0.1 µM
[19] = second compound 10 µM, first compound 0.316 µM
[20] = second compound 10 µM, first compound 1 µM
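Further: spheroids also contain HUVEC and human MSCs and agents combined with iadademstat; spheroids exposed to agents for 7 days before readout.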

| Structure (SMILES) | pIC50 (second compound 0.1 µM) | pIC50 (second compound 0.316 µM) | pIC50 (second compound 1 µM) | pIC50 (second compound 3.16 µM) | pIC50 (second compound 10 µM) | viability, T/C [1] | viability, T/C [2] | viability, T/C [3] | viability, T/C [4] | viability, T/C [5] | viability, T/C [6] | viability, T/C [7] | viability, T/C [8] | viability, T/C [9] | viability, T/C [10] | viability, T/C [11] | viability, T/C [12] | viability, T/C [13] | viability, T/C [14] | viability, T/C [15] | other results |
| --- | --- | --- | --- | --- | --- | --- | --- | --- | --- | --- | --- | --- | --- | --- | --- | --- | --- | --- | --- | --- | --- |
| CC1COCCN1c1cc(-c2ccnn2C)c2ccnc(-c3ccn[nH]3)c2n1 (stereo not given) + NC1CC1c1ccc(-c2cccc(O)c2)cc1 | 7.64 | 7.75 | 7.89 | 7.80 | 7.89 | 40.5% | 20.6% | 14.1% | 12.1% | 38.1% | 20.6% | 13.3% | 11.6% | 35% | 21.5% | 14.3% | 10.8% | 39.3% | 22.1% | 14.5% | viability, T/C (second compound 0.1 µM, first compound 0.00316 µM): 90.1%; viability, T/C (second compound 0.1 µM, first compound 0.01 µM): 73.6%; viability, T/C (second compound 0.316 µM, first compound 0.00316 µM): 74%; viability, T/C (second compound 0.316 µM, first compound 0.01 µM): 61.5%; viability, T/C (second compound 1 µM, first compound 0.00316 µM): 66.7%; viability, T/C (second compound 1 µM, first compound 0.01 µM): 54.7%; viability, T/C (second compound 3.16 µM, first compound 0.00316 µM): 73.9%; viability, T/C (second compound 3.16 µM, first compound 0.01 µM): 57%; viability, T/C [16]: 12%; viability, T/C (second compound 10 µM, first compound 0.00316 µM): 69.6%; viability, T/C (second compound 10 µM, first compound 0.01 µM): 54.1%; viability, T/C [17]: 36.4%; viability, T/C [18]: 24.2%; viability, T/C [19]: 17.9%; viability, T/C [20]: 13.7% |
| CC1COCCN1c1cc(C2(S(C)(=N)=O)CC2)nc(-c2ccnc3[nH]ccc23)n1 (stereo not given) + NC1CC1c1ccc(-c2cccc(O)c2)cc1 | 6.29 | 6.52 | 6.52 | 6.43 | 6.53 | 86.1% | 81.3% | 58.3% | 35.9% | 80.1% | 71% | 46.3% | 30.8% | 74.5% | 65.3% | 47.9% | 34.6% | 67.6% | 71.5% | 47.8% | viability, T/C (second compound 0.1 µM, first compound 3.16 µM): 18%; viability, T/C (second compound 0.1 µM, first compound 10 µM): 8.83%; viability, T/C (second compound 0.316 µM, first compound 3.16 µM): 20.5%; viability, T/C (second compound 0.316 µM, first compound 10 µM): 8.77%; viability, T/C (second compound 1 µM, first compound 3.16 µM): 21.8%; viability, T/C (second compound 1 µM, first compound 10 µM): 9.55%; viability, T/C [16]: 35.9%; viability, T/C (second compound 3.16 µM, first compound 3.16 µM): 22.2%; viability, T/C (second compound 3.16 µM, first compound 10 µM): 10.4%; viability, T/C [17]: 75%; viability, T/C [18]: 66.1%; viability, T/C [19]: 45.7%; viability, T/C [20]: 36.4%; viability, T/C (second compound 10 µM, first compound 3.16 µM): 21.2%; viability, T/C (second compound 10 µM, first compound 10 µM): 12.2% |
